Assay results taken from ChEMBL document CHEMBL1201862, “PubChem BioAssay data set” (2004).
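Five compound concentrations were applied to cells in 96-well plates for 48 hours; endpoints were derived by simple linear interpolation of the resulting dose-response curve. GI50 = concentration required for 50% inhibition of growth.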 Calls of active or inactive are those of the source. Rule as the data show it: active = GI50 up to about 1.1 µM and inactive = higher.

Key:
Test in all cases: growth of human tumour cells (NCI), 48 h
[1] = system: COLO 205
[2] = system: M14
[3] = system: HCT-116
[4] = system: HT-29
[5] = system: IGROV-1
[6] = system: SN12C
[7] = system: DMS-273
[8] = system: UACC-62
[9] = system: SF-539
[10] = system: ACHN
[11] = system: UO-31
[12] = system: Malme-3M
[13] = system: EKVX
[14] = system: OVCAR-4
[15] = system: SF-268
[16] = system: NCI-H226
[17] = system: DMS-114
[18] = system: UACC-257
[19] = system: XF498
[20] = system: KM-20L2
[21] = system: LXFL 529
[22] = system: HCC 2998
[23] = system: SK-OV-3
[24] = system: HOP-62
[25] = system: HOP-92
[26] = system: LOX IMVI
[27] = system: M19-MEL
[28] = system: KM12
[29] = system: OVCAR-3
[30] = system: OVCAR-5
[31] = system: SR
[32] = system: SNB-75
[33] = system: NCI-H460
[34] = system: CCRF-CEM
[35] = system: MOLT-4
[36] = system: A549
[37] = system: NCI-H522
[38] = system: HCT-15
[39] = system: 786-0
[40] = system: SK-MEL-2
[41] = system: SK-MEL-5
[42] = system: RPMI-8226
[43] = system: HL-60
[44] = system: SK-MEL-28
[45] = system: SNB-19
[46] = system: SNB-78
[47] = system: K562
[48] = system: RXF 393
[49] = system: DLD-1
[50] = system: TK-10
[51] = system: NCI-H23
[52] = system: SF-295
[53] = system: OVCAR-8
[54] = system: SW-620
[55] = system: U-251
[56] = system: A498
[57] = system: CAKI-1

## CC[n+]1c(/C=C/c2cc(C(=O)OC)n3c2sc2ccccc23)sc2ccccc21
[1]
  GI50: 22.9 µM (inactive)
[2]
  GI50: 18.8 µM (inactive)
[3]
  GI50: 14.5 µM (inactive)
[4]
  GI50: 16.6 µM (inactive)
[5]
  GI50: 16.9 µM (inactive)
[6]
  GI50: 23.1 µM (inactive)
[7]
  GI50: 17.6 µM (inactive)
[8]
  GI50: 0.394 µM (active)
[9]
  GI50: 18.2 µM (inactive)
[10]
  GI50: 19.1 µM (inactive)
[11]
  GI50: 17.5 µM (inactive)
[12]
  GI50: 16.7 µM (inactive)
[13]
  GI50: 20.7 µM (inactive)
[14]
  GI50: 17.8 µM (inactive)
[15]
  GI50: 21.5 µM (inactive)
[16]
  GI50: 23 µM (inactive)
[17]
  GI50: 19.2 µM (inactive)
[18]
  GI50: 17.3 µM (inactive)
[19]
  GI50: 13.3 µM (inactive)
[20]
  GI50: 17.8 µM (inactive)
[21]
  GI50: 13.8 µM (inactive)
[22]
  GI50: 14.6 µM (inactive)
[23]
  GI50: 17.9 µM (inactive)
[24]
  GI50: 0.434 µM (active)
[25]
  GI50: 15.5 µM (inactive)
[26]
  GI50: 17.5 µM (inactive)
[27]
  GI50: 18.9 µM (inactive)
[28]
  GI50: 14.7 µM (inactive)
[29]
  GI50: 20.3 µM (inactive)
[30]
  GI50: 20.8 µM (inactive)
[31]
  GI50: > 10 µM (inactive)
[32]
  GI50: 15.7 µM (inactive)
[33]
  GI50: 16.2 µM (inactive)
[34]
  GI50: 0.214 µM (active)
[35]
  GI50: 11.4 µM (inactive)
[36]
  GI50: 18.8 µM (inactive)
[37]
  GI50: 15.6 µM (inactive)
[38]
  GI50: 18.8 µM
[39]
  GI50: 19.1 µM (inactive)
[40]
  GI50: 18.7 µM (inactive)
[41]
  GI50: 15 µM (inactive)
[42]
  GI50: > 10 µM (inactive)
[43]
  GI50: 13.9 µM (inactive)

## Cc1ccc(/N=N/C2S/C(=C(\C#N)c3nc4ccccc4[nH]3)N(c3ccccc3)C2=O)cc1 (stereo not given)
[1]
  GI50: > 100 µM (inactive)
[44]
  GI50: > 100 µM (inactive)
[2]
  GI50: 89.1 µM (inactive)
[3]
  GI50: 90.2 µM (inactive)
[4]
  GI50: > 100 µM (inactive)
[5]
  GI50: 29.6 µM (inactive)
[6]
  GI50: > 100 µM (inactive)
[7]
  GI50: > 100 µM (inactive)
[45]
  GI50: 99.1 µM (inactive)
[8]
  GI50: > 100 µM (inactive)
[9]
  GI50: 43.6 µM (inactive)
[46]
  GI50: > 100 µM (inactive)
[10]
  GI50: 34.1 µM (inactive)
[11]
  GI50: 39 µM (inactive)
[47]
  GI50: 20.4 µM (inactive)
[12]
  GI50: > 100 µM (inactive)
[13]
  GI50: > 100 µM (inactive)
[14]
  GI50: 42.8 µM (inactive)
[48]
  GI50: 28.8 µM (inactive)
[15]
  GI50: > 100 µM (inactive)
[16]
  GI50: > 100 µM (inactive)
[17]
  GI50: 65.5 µM (inactive)
[18]
  GI50: 55 µM (inactive)
[19]
  GI50: 30 µM (inactive)
[20]
  GI50: > 100 µM (inactive)
[21]
  GI50: > 100 µM (inactive)
[23]
  GI50: > 100 µM (inactive)
[49]
  GI50: > 100 µM (inactive)
[50]
  GI50: 36.9 µM (inactive)
[24]
  GI50: 30.1 µM (inactive)
[25]
  GI50: 37.3 µM (inactive)
[26]
  GI50: 19.9 µM (inactive)
[27]
  GI50: > 100 µM (inactive)
[29]
  GI50: > 100 µM (inactive)
[30]
  GI50: 85.1 µM (inactive)
[32]
  GI50: 29.2 µM (inactive)
[33]
  GI50: > 100 µM (inactive)
[34]
  GI50: > 100 µM (inactive)
[51]
  GI50: 86.7 µM (inactive)
[52]
  GI50: 42.6 µM (inactive)
[53]
  GI50: 56.1 µM (inactive)
[36]
  GI50: 88.1 µM (inactive)
[54]
  GI50: > 100 µM (inactive)
[37]
  GI50: > 100 µM (inactive)
[55]
  GI50: 57.9 µM (inactive)
[38]
  GI50: > 100 µM
[39]
  GI50: 27.3 µM (inactive)
[40]
  GI50: > 100 µM (inactive)
[56]
  GI50: > 100 µM (inactive)
[57]
  GI50: 67.1 µM (inactive)
[41]
  GI50: > 100 µM (inactive)
[43]
  GI50: > 100 µM (inactive)
